Test results: patent US8232406B2, “c-MET protein kinase inhibitors” (Vertex Pharmaceuticals Incorporated, priority 2006, dated 2012)

Molecular target: c-MET (Homo sapiens, UniProt P08581)
Test: Ki determination for the inhibition of c-MET (standard radiometric 33P-ATP kinase assay, polyE4Y substrate)
Assay type: biochemical
Conditions: 1.0 nM c-Met, 35 μM ATP, 0.5 mg/mL polyE4Y, 20 min; competitive tight-binding fit
Outline: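 Radiometric assay of 33P transfer from 33P-ATP (35 μM) to polyE4Y (0.5 mg/mL) by 1.0 nM c-Met in 100 mM HEPES pH 7.5, 10 mM MgCl2, 25 mM NaCl, 0.01% BSA, 1 mM DTT. TCA-quenched after 20 min, filter-captured, scintillation-counted; Ki fitted to a competitive tight-binding model.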

Sequence of c-MET (P08581 25-1390): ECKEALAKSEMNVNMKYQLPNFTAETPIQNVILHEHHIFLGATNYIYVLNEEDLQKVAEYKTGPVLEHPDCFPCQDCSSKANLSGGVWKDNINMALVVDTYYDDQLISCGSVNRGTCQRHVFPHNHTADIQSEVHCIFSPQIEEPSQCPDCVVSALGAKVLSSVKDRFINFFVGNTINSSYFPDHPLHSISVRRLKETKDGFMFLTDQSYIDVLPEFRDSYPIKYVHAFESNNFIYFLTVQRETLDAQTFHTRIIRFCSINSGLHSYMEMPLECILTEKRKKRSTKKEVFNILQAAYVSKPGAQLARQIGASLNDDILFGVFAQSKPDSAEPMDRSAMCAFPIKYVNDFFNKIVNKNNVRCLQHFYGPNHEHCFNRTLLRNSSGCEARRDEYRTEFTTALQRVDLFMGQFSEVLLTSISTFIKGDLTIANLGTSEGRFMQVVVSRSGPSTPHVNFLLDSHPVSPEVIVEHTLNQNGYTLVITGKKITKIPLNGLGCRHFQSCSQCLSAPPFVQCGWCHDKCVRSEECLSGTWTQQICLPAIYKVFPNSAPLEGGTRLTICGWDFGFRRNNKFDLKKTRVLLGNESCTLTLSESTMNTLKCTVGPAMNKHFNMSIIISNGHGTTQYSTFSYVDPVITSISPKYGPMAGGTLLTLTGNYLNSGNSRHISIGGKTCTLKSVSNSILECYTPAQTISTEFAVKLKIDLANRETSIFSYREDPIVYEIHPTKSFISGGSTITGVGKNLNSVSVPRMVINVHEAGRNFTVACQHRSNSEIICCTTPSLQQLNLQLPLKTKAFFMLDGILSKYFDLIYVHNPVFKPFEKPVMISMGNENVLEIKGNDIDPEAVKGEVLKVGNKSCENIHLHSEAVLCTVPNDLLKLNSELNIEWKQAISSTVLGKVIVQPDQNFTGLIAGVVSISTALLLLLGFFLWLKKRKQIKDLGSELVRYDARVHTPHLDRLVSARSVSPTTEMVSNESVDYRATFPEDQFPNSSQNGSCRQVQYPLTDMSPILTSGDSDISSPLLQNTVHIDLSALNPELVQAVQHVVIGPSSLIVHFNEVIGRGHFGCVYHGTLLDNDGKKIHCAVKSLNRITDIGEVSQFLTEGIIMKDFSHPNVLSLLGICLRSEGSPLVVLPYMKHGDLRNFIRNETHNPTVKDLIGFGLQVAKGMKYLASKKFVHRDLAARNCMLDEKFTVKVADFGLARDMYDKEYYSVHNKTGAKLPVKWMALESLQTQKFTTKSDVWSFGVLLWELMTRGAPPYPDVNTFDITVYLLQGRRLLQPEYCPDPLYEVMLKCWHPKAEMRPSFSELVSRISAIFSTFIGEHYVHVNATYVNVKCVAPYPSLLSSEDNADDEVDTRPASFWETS

SMILES | Ki
CC(=O)c1cccc(-c2cnc(N)c(-c3nnnn3-c3cccc(F)c3F)c2)c1 [I-A-218] | ≤ 100 nM
COc1cc(O)ccc1-c1cnc(N)c(-c2nnnn2-c2cccc(F)c2F)c1 [I-A-220] | ≤ 100 nM
COc1cccc(-c2cnc(N)c(-c3nnnn3-c3cccc(F)c3F)c2)c1 [I-A-221] | ≤ 100 nM
Nc1ncc(-c2ccccc2Cl)cc1-c1nnnn1-c1cccc(F)c1F [I-A-224] | 100 to 1000 nM
N#Cc1cccc(-c2cnc(N)c(-c3nnnn3-c3cccc(F)c3F)c2)c1 [I-A-228] | 100 to 1000 nM
Nc1ncc(-c2ccccc2)cc1-c1nnnn1-c1cccc(F)c1F [I-A-233] | ≤ 100 nM
Nc1ncc(-c2ccc3c(c2)OCCO3)cc1-c1nnnn1-c1cccc(F)c1F [I-A-235] | ≤ 100 nM
CC(C)c1cccc(-c2cnc(N)c(-c3nnnn3-c3cccc(F)c3F)c2)c1 [I-A-236] | 100 to 1000 nM
Nc1ncc(-c2cccc([N+](=O)[O-])c2)cc1-c1nnnn1-c1cccc(F)c1F [I-A-239] | ≤ 100 nM
Cc1ccccc1-c1cnc(N)c(-c2nnnn2-c2cccc(F)c2F)c1 [I-A-241] | 100 to 1000 nM
Cc1cccc(-c2cnc(N)c(-c3nnnn3-c3cccc(F)c3F)c2)c1 [I-A-242] | ≤ 100 nM
Nc1ncc(-c2cccc(O)c2)cc1-c1nnnn1-c1cccc(F)c1F [I-A-247] | ≤ 100 nM
Nc1ncc(-c2ccn[nH]2)cc1-c1nnnn1-c1cccc(F)c1F [I-A-248] | 100 to 1000 nM
Cn1cc(-c2cnc(N)c(-c3nnnn3-c3cccc(F)c3F)c2)cn1 [I-A-249] | ≤ 100 nM
CSc1ccccc1-c1cnc(N)c(-c2nnnn2-c2cccc(F)c2F)c1 [I-A-252] | 100 to 1000 nM
CS(=O)(=O)Nc1cccc(-c2cnc(N)c(-c3nnnn3-c3cccc(F)c3F)c2)c1 [I-A-254] | ≤ 100 nM
Nc1ncc(-c2ccc(N3CC(=O)NC3=O)cc2)cc1-c1nnnn1-c1cccc(F)c1F [I-A-256] | ≤ 100 nM
Nc1ncc(-c2ccc(C3NC(=O)NC3=O)cc2)cc1-c1nnnn1-c1cccc(F)c1F (stereo not drawn) [I-A-257] | ≤ 100 nM
Nc1ncc(-c2cccc(NC(=O)CN3CCCC3)c2)cc1-c1nnnn1-c1cccc(F)c1F [I-A-259] | ≤ 100 nM
CC(C)C(=O)Nc1cccc(-c2cnc(N)c(-c3nnnn3-c3cccc(F)c3F)c2)c1 [I-A-260] | 100 to 1000 nM
Nc1ncc(-c2cccc(NC(=O)C3CC3)c2)cc1-c1nnnn1-c1cccc(F)c1F [I-A-261] | ≤ 100 nM

SMILES | Ki
CC(c1ccc(-c2cnc(N)c(-c3nnnn3-c3cccc(F)c3F)c2)s1)N1CCCC1 (stereo not drawn) [I-A-262] | ≤ 100 nM
CC(=O)Nc1ccc(-c2cnc(N)c(-c3nnnn3-c3cccc(F)c3F)c2)s1 [I-A-263] | ≤ 100 nM
Nc1ncc(-c2cccc(NC(=O)N3CCCC3)c2)cc1-c1nnnn1-c1cccc(F)c1F [I-A-269] | 100 to 1000 nM
CN1CCN(C(=O)Nc2cccc(-c3cnc(N)c(-c4nnnn4-c4cccc(F)c4F)c3)c2)CC1 [I-A-270] | 100 to 1000 nM
COCCOC(=O)Nc1cccc(-c2cnc(N)c(-c3nnnn3-c3cccc(F)c3F)c2)c1 [I-A-271] | 100 to 1000 nM
Nc1ncc(-c2cccc(NC(=O)Nc3cccnc3)c2)cc1-c1nnnn1-c1cccc(F)c1F [I-A-272] | ≤ 100 nM
Nc1ncc(-c2cccc(NC(=O)NC3CCCCO3)c2)cc1-c1nnnn1-c1cccc(F)c1F (stereo not drawn) [I-A-273] | ≤ 100 nM
CN(C(=O)Nc1cccc(-c2cnc(N)c(-c3nnnn3-c3cccc(F)c3F)c2)c1)c1ccccc1 [I-A-274] | 100 to 1000 nM
Nc1ncc(-c2cccc(NC(=O)Nc3cccs3)c2)cc1-c1nnnn1-c1cccc(F)c1F [I-A-275] | 100 to 1000 nM
COCCOC(=O)Nc1ccc(-c2cnc(N)c(-c3nnnn3-c3cccc(F)c3F)c2)cc1 [I-A-277] | ≤ 100 nM
Nc1ncc(-c2ccc(NC(=O)Nc3cccnc3)cc2)cc1-c1nnnn1-c1cccc(F)c1F [I-A-278] | 100 to 1000 nM
CN(C(=O)Nc1ccc(-c2cnc(N)c(-c3nnnn3-c3cccc(F)c3F)c2)cc1)c1ccccc1 [I-A-279] | 100 to 1000 nM
Nc1ncc(-c2ccc(NC(=O)c3ccncc3)cc2)cc1-c1nnnn1-c1cccc(F)c1F [I-A-280] | ≤ 100 nM
CCNC(=O)Nc1ccc(-c2cnc(N)c(-c3nnnn3-c3cccc(F)c3F)c2)cc1 [I-A-281] | ≤ 100 nM
Nc1ncc(-c2ccc(NC(=O)Nc3cccs3)cc2)cc1-c1nnnn1-c1cccc(F)c1F [I-A-282] | 100 to 1000 nM
Nc1ncc(-c2ccc3c(c2)OC(F)(F)O3)cc1-c1nnnn1-c1cccc(F)c1F [I-A-285] | 100 to 1000 nM
Nc1ccc(-c2cnc(N)c(-c3nnnn3-c3cccc(F)c3F)c2)cc1F [I-A-286] | ≤ 100 nM
Nc1ncc(-c2cc(Cl)c(N)c(Cl)c2)cc1-c1nnnn1-c1cccc(F)c1F [I-A-287] | ≤ 100 nM
Nc1ncc(-c2cc(F)cc(F)c2)cc1-c1nnnn1-c1cccc(F)c1F [I-A-288] | 100 to 1000 nM
CN1CCOc2cc(-c3cnc(N)c(-c4nnnn4-c4cccc(F)c4F)c3)ccc21 [I-A-289] | 100 to 1000 nM

More lines, now with the values ahead:

Ki | SMILES
≤ 100 nM | CC(=O)c1ccc(-c2cnc(N)c(-c3nnnn3-c3cccc(F)c3F)c2)cc1 [I-A-219]
≤ 100 nM | COc1ccc(-c2cnc(N)c(-c3nnnn3-c3cccc(F)c3F)c2)cc1 [I-A-222]
≤ 100 nM | Nc1ncc(-c2ccc(F)cc2)cc1-c1nnnn1-c1cccc(F)c1F [I-A-223]
100 to 1000 nM | Nc1ncc(-c2cccc(Cl)c2)cc1-c1nnnn1-c1cccc(F)c1F [I-A-225]
100 to 1000 nM | N#Cc1ccc(-c2cnc(N)c(-c3nnnn3-c3cccc(F)c3F)c2)cc1 [I-A-229]
≤ 100 nM | Nc1ncc(-c2cccc(CO)c2)cc1-c1nnnn1-c1cccc(F)c1F [I-A-231]
≤ 100 nM | Nc1ncc(-c2ccc(CO)cc2)cc1-c1nnnn1-c1cccc(F)c1F [I-A-232]
≤ 100 nM | CN(C)c1ccc(-c2cnc(N)c(-c3nnnn3-c3cccc(F)c3F)c2)cc1 [I-A-234]
100 to 1000 nM | CC(C)c1ccc(-c2cnc(N)c(-c3nnnn3-c3cccc(F)c3F)c2)cc1 [I-A-237]
100 to 1000 nM | CC(C)Oc1ccc(-c2cnc(N)c(-c3nnnn3-c3cccc(F)c3F)c2)cc1 [I-A-240]
≤ 100 nM | NC(=O)c1ccc(-c2cnc(N)c(-c3nnnn3-c3cccc(F)c3F)c2)cc1 [I-A-245]
≤ 100 nM | CS(=O)(=O)c1ccc(-c2cnc(N)c(-c3nnnn3-c3cccc(F)c3F)c2)cc1 [I-A-250]
≤ 100 nM | CSc1ccc(-c2cnc(N)c(-c3nnnn3-c3cccc(F)c3F)c2)cc1 [I-A-251]
100 to 1000 nM | Cc1ccc(-c2cnc(N)c(-c3nnnn3-c3cccc(F)c3F)c2)cc1 [I-A-255]
≤ 100 nM | Nc1ncc(-c2ccc(C3CCCN3)cc2)cc1-c1nnnn1-c1cccc(F)c1F (stereo not drawn) [I-A-258]
≤ 100 nM | COC[C@H]1CCCN1Cc1ccc(-c2cnc(N)c(-c3nnnn3-c3cccc(F)c3F)c2)cc1 [I-A-264]
≤ 100 nM | Nc1ncc(-c2ccc(CN3CC4CC3CO4)cc2)cc1-c1nnnn1-c1cccc(F)c1F (stereo not drawn) [I-A-265]
≤ 100 nM | CC(C)(C#N)c1ccc(-c2cnc(N)c(-c3nnnn3-c3cccc(F)c3F)c2)cc1 [I-A-266]
≤ 100 nM | C[C@@H]1CC[C@@H](C)N1Cc1ccc(-c2cnc(N)c(-c3nnnn3-c3cccc(F)c3F)c2)cc1 [I-A-267]
≤ 100 nM | CC(C)(O)c1ccc(-c2cnc(N)c(-c3nnnn3-c3cccc(F)c3F)c2)cc1 [I-A-268]
≤ 100 nM | Nc1ncc(-c2ccc(NC(=O)N3CCCC3)cc2)cc1-c1nnnn1-c1cccc(F)c1F [I-A-276]
≤ 100 nM | Nc1ncc(-c2ccc(OCCO)cc2)cc1-c1nnnn1-c1cccc(F)c1F [I-A-283]
